The inhibition is how much of the control response was suppressed.

Each structure is given as a SMILES string.

In the test the target is Poly [ADP-ribose] polymerase 1 (Mus musculus) (UniProt P11103). Kind of test: Percent inhibition of poly(ADP-ribose) polymerase-1 (PARP-1) in mouse using Cell protection assay at 10 uM.
Sequence of Poly [ADP-ribose] polymerase 1 (Mus musculus) (P11103 whole entry): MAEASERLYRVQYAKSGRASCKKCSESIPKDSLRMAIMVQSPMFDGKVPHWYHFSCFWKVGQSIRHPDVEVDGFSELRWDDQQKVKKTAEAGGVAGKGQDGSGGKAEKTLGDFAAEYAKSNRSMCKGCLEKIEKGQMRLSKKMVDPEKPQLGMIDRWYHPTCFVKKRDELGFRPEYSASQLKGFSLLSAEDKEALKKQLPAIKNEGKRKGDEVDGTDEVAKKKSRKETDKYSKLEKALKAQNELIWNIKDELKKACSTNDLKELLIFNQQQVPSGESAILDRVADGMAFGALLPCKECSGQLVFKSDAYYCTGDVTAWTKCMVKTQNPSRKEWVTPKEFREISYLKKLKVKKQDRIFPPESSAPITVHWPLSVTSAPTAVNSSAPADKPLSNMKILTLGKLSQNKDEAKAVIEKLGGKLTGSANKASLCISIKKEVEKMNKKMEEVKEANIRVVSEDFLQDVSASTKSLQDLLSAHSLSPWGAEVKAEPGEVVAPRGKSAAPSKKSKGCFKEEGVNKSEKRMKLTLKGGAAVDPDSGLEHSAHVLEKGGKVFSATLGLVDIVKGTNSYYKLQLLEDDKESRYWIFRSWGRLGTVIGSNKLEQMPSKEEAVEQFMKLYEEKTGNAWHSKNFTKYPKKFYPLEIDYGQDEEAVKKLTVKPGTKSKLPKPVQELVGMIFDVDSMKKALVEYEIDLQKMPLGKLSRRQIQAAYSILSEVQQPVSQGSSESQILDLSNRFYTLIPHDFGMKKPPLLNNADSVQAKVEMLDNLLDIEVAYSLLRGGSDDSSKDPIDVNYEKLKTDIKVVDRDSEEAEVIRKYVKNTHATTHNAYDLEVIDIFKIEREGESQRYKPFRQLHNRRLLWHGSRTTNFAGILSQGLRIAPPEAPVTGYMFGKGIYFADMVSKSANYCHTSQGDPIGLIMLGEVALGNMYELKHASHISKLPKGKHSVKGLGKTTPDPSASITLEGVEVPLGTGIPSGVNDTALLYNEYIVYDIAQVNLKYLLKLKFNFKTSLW

On to `NC(=O)c1cccc(NC(=O)CCC(=O)NCC2OC(n3cnc4c(N)ncnc43)[C@H](O)[C@@H]2O)c1` (some centres undefined), for which the inhibition turned out to be 52%.

Compound `O=C1N=Cc2ccccc21` returned an inhibition of 33%.

In turn, `O=C(CCCCCCC(=O)Nc1cccc2c1CNC2=O)NC[C@H]1OC(n2cnc3c(O)ncnc32)[C@H](O)[C@@H]1O` (some centres undefined) gave an inhibition of 30%.

Turning to `Nc1ncnc2c1ncn2C1O[C@H](CNC(=O)/C=C/c2ccc(C(=O)Nc3cccc4c3CNC4=O)cc2)[C@@H](O)[C@H]1O` (some centres undefined), the inhibition was found to be 51%.

These data come from ChEMBL document CHEMBL1146715, “The discovery and synthesis of novel adenosine substituted 2,3-dihydro-1H-isoindol-1-ones: potent inhibitors of poly(ADP-ribose) polymerase-1 (PARP-1)” (Bioorg Med Chem Lett, 2004).
